Source: patent US5066644A, “Derivatives of thiazolidine-4-carboxylic acid, its preparation and pharmaceutical compositions containing it” (Poli Industria Chimica S.p.A., priority 1989, dated 1991)
Non-standard residues stand in square brackets, D forms with d. Residues, ends and D or L forms follow the SMILES beside them. ξ: configuration not given here. *: point of attachment. pGlu = O=C1CC[C@@H](C(=O)O)N1; Morpholide = C1CN(*)CCO1; ξThz = O=C(O)C1CSCN1

System: delayed hypersensitivity by DNCB
Assay: Delayed hypersensitivity induced by DNCB in prednisolone-immunodepressed mice
Format: in vivo
Conditions: 200 mg/kg/die os; 24 hours after challenge
Experimental: Male COBS CD-2 mice weighing about 30 g were sensitized with 25 μl of dinitrochlorobenzene (DNCB) at the concentration of 20 mg/ml in acetone applied on a zone of the abdomen depilated at least 2 hours before.
After 12 hours the animals were challenged with 5 μl of DNCB at the concentration of 10 mg/ml in acetone applied on the external surface of the left auricolar pinna.
In order to carry out this operation the mice were slightly anesthetized with ether. The mice were treated with the compounds under examination from two days before until the day of sensitization and with the compounds and with prednisolone (0.5 mg/kg/die s.c.; 0.5 ml/10 g) from the tenth day after sensitization until the day when challenge occurred.
The animals were killed 24 hours after the challenge; both ears were cut and weighed. The values are expressed as the ratio between the left ear (sensitized) and the right one (unsensitized). […] The increase was higher than that obtained after oral administration of PGT.

| SMILES | Weight left ear/Weight right ear |
| --- | --- |
| CCNC(=O)C1CSCN1C(=O)[C@@H]1CCC(=O)N1 (stereo partly drawn) [Ic, N-(3-pyroglutamyl-thiazolidine-4-carbonyl)-ethylamine] ([pGlu]-[ξThz]-NHEt) | 1.706 ± 0.028 |
| O=C1CC[C@@H](C(=O)N2CSCC2C(=O)O)N1 (stereo partly drawn) [PGT, 3-pyroglutamyl-thiazolidine-4-carboxylic acid, reference compound] ([pGlu]-[ξThz]-OH) | 1.579 ± 0.027 |
| O=C1CC[C@@H](C(=O)N2CSCC2C(=O)N2CCOCC2)N1 (stereo partly drawn) [Ib, N-(3-Pyroglutamyl-thiazolidine-4-carbonyl)morpholine] ([pGlu]-[ξThz]-Morpholide) | 1.702 ± 0.026 |
| NC(=O)C1CSCN1C(=O)[C@@H]1CCC(=O)N1 (stereo partly drawn) [Ia, 3-Pyroglutamyl-thiazolidine-4-carboxamide] ([pGlu]-[ξThz]-NH2) | 1.688 ± 0.029 |

Same assay, conditions: 200 mg/kg/die os; vs. control group

| SMILES | Increase % [%] |
| --- | --- |
| CCNC(=O)C1CSCN1C(=O)[C@@H]1CCC(=O)N1 (stereo partly drawn) [Ic, N-(3-pyroglutamyl-thiazolidine-4-carbonyl)-ethylamine] ([pGlu]-[ξThz]-NHEt) | 29.05 |
| O=C1CC[C@@H](C(=O)N2CSCC2C(=O)O)N1 (stereo partly drawn) [PGT, 3-pyroglutamyl-thiazolidine-4-carboxylic acid, reference compound] ([pGlu]-[ξThz]-OH) | 19.44 |
| O=C1CC[C@@H](C(=O)N2CSCC2C(=O)N2CCOCC2)N1 (stereo partly drawn) [Ib, N-(3-Pyroglutamyl-thiazolidine-4-carbonyl)morpholine] ([pGlu]-[ξThz]-Morpholide) | 28.74 |
| NC(=O)C1CSCN1C(=O)[C@@H]1CCC(=O)N1 (stereo partly drawn) [Ia, 3-Pyroglutamyl-thiazolidine-4-carboxamide] ([pGlu]-[ξThz]-NH2) | 27.68 |

System: rosette forming cells
Assay: Rosette forming cells (primary response) in prednisolone-immunodepressed mice
Format: in vivo
Conditions: 200 mg/kg/die os
Experimental: The compounds of the invention are also active in the test of the rosette forming cells (primary response; II° type) in prednisolone immunodepressed mice (S. D. Wilson, Immunology, 21, 233, 1971).
Male COBS CD-1 mice weighing about 25 g were treated for 7 days twice a day, with the compounds of the invention and at the second and third day with prednisolone at the dose of 5 mg/kg/s.c. (0.05 ml/10 g).
After 4 days from the start of the treatment the
10 animals were immunized with 5×10^8 sheep red blood cells in 0.2 ml of PBS by intraperitoneal route. The red blood cells were prepared by centrifugating the citrated sheep blood at 1500 rpm for 15 min.; the precipitated red blood cells were washed twice at 1200 rpm for 10 min. in PBS removing the first layer, then suspended again in PBS and counted adjusting at 2.5×10^9 cells/ml.
After 6 days from the immunization the rosette test was carried out by killing the mice and removing the spleen, which was placed in 1 ml of Hank solution in ice-bath and then triturated, homogenated and gauze-filtered. The homogenate was washed twice in Hank, centrifugating at 1200 rpm for 10 min. and then suspended again. The suspension was adjusted to 6×10^7 cells/ml by counting at the Coulter Counter after lysis of the red blood cells. 100 μl of spleen cells suspension (6×10^7 /ml)+100 μl of red blood cells suspension (3×10^8 /ml) were mixed in 0.8 ml of Hank stirring slightly for 1 minute. The samples were incubated for 24 h at+4° C. avoiding any stirring. The samples were then stirred and the number of rosette forming cells/ml was evaluated by means of the Burker apparatus.

| SMILES | Rosette forming cells/spleen cells % [%] |
| --- | --- |
| CCNC(=O)C1CSCN1C(=O)[C@@H]1CCC(=O)N1 (stereo partly drawn) [Ic, N-(3-pyroglutamyl-thiazolidine-4-carbonyl)-ethylamine] ([pGlu]-[ξThz]-NHEt) | 1.145 ± 0.032 |
| O=C1CC[C@@H](C(=O)N2CSCC2C(=O)O)N1 (stereo partly drawn) [PGT, 3-pyroglutamyl-thiazolidine-4-carboxylic acid, reference compound] ([pGlu]-[ξThz]-OH) | 1.125 ± 0.040 |
| O=C1CC[C@@H](C(=O)N2CSCC2C(=O)N2CCOCC2)N1 (stereo partly drawn) [Ib, N-(3-Pyroglutamyl-thiazolidine-4-carbonyl)morpholine] ([pGlu]-[ξThz]-Morpholide) | 1.138 ± 0.038 |
| NC(=O)C1CSCN1C(=O)[C@@H]1CCC(=O)N1 (stereo partly drawn) [Ia, 3-Pyroglutamyl-thiazolidine-4-carboxamide] ([pGlu]-[ξThz]-NH2) | 1.140 ± 0.032 |

Same assay, conditions: 200 mg/kg/die os; vs. control group

| SMILES | Rosette forming cells change % |
| --- | --- |
| CCNC(=O)C1CSCN1C(=O)[C@@H]1CCC(=O)N1 (stereo partly drawn) [Ic, N-(3-pyroglutamyl-thiazolidine-4-carbonyl)-ethylamine] ([pGlu]-[ξThz]-NHEt) | +34.71% |
| O=C1CC[C@@H](C(=O)N2CSCC2C(=O)O)N1 (stereo partly drawn) [PGT, 3-pyroglutamyl-thiazolidine-4-carboxylic acid, reference compound] ([pGlu]-[ξThz]-OH) | +32.35% |
| O=C1CC[C@@H](C(=O)N2CSCC2C(=O)N2CCOCC2)N1 (stereo partly drawn) [Ib, N-(3-Pyroglutamyl-thiazolidine-4-carbonyl)morpholine] ([pGlu]-[ξThz]-Morpholide) | +33.88% |
| NC(=O)C1CSCN1C(=O)[C@@H]1CCC(=O)N1 (stereo partly drawn) [Ia, 3-Pyroglutamyl-thiazolidine-4-carboxamide] ([pGlu]-[ξThz]-NH2) | +34.12% |

System: peritoneal macrophages
Assay: Superoxide anion production by peritoneal macrophages from prednisolone-immunodepressed mice
Format: in vivo
Conditions: 200 mg/kg/die i.p. + prednisolone 0,5 mg/kg/die/s.c.; macrophages stimulated with phorbol myristate acetate
Source text: Since the production of superoxide anion (O2 ) plays an important role in the microbicidal activity of macrophages (N. P. Cumming, M. J. Pabst, J.Exp.Med., 152, 1649, 1980), the showing of a stimulation of the superoxide anion in the macrophages by drugs provides a very important test for the evaluation of immunostimulating activity. The production of O2 in peritoneal macrophages isolated from prednisolone immunodepressed animals treated with the compounds of the invention was therefore evaluated. The mice were treated subcutaneously for two days with 0.5 mg/kg/day of prednisolone and with the compounds under examination at the dose of 100 mg/kg twice a day, whereas the morning of the animals sacrifice the animals received the compounds only. The macrophages were then isolated by means of a peritoneal washing and cultured in RPMI-1640 added with 10% foetal calf serum, at the concentration of 1×10^6 cells/ml at the temperature of ±37° C. Amounts of 1 ml of cell suspension were incubated for 15' at 37° C. with horse heart cytochrome C and stimulated with phorbol myristate acetate (H. Nielsen, Eur.J.Clin.Pharmacol., 30, 90, 1986). A specrophotometric determination at λ=550 nm of the reduced ferricytochroma using an extinction coefficient E(550)=29.5 mM was then carried out. As it turns out from Table 1, the prednisolone treatment induces an immunosuppression resulting in a lesser production of superoxide anion; the contemporaneous treatment with the compounds of the invention stimulates the 02 production by macrophages up to values close to those of control animals. The compounds have an activity which is from similar to higher than that of PGT at equiponderal doses.

| SMILES | nmol cytochrome C reduced/1 × 10^6 macrophages (mean ± S.E.) |
| --- | --- |
| CCNC(=O)C1CSCN1C(=O)[C@@H]1CCC(=O)N1 (stereo partly drawn) [Ic, N-(3-pyroglutamyl-thiazolidine-4-carbonyl)-ethylamine] ([pGlu]-[ξThz]-NHEt) | 7.83 ± 0.72 nmol cytochrome C reduced/1 × |
| O=C1CC[C@@H](C(=O)N2CSCC2C(=O)O)N1 (stereo partly drawn) [PGT, 3-pyroglutamyl-thiazolidine-4-carboxylic acid, reference compound] ([pGlu]-[ξThz]-OH) | 8.85 ± 0.75 nmol cytochrome C reduced/1 × |
| O=C1CC[C@@H](C(=O)N2CSCC2C(=O)N2CCOCC2)N1 (stereo partly drawn) [Ib, N-(3-Pyroglutamyl-thiazolidine-4-carbonyl)morpholine] ([pGlu]-[ξThz]-Morpholide) | 9.62 ± 0.63 nmol cytochrome C reduced/1 × |
| NC(=O)C1CSCN1C(=O)[C@@H]1CCC(=O)N1 (stereo partly drawn) [Ia, 3-Pyroglutamyl-thiazolidine-4-carboxamide] ([pGlu]-[ξThz]-NH2) | 9.25 ± 0.48 nmol cytochrome C reduced/1 × |

System: reticulo-endothelial system
Assay: Activity of the reticulo-endothelial system (colloidal charcoal clearance) in cyclophosphamide-immunodepressed mouse
Format: in vivo
Conditions: 100 mg/kg/die i.p.
Experimental: The compounds of the invention are also active in the test of the activity of the reticulo-endothelial system in the mouse immunodepressed by cyclophosphamide (Biozzi G. et al., Brit. J. Path., 34, 441, 1953). COBS CD-1 mice were injected i.v. with colloidal charcoal (0.32 ml of china ink/ml of saline), 10 μl of retroorbital blood were then taken out immediately before and after 1, 10 and 20 min. from the intravenous injection, the blood sample was placed in 3 ml of HCl 0.1 N and the absorbance was evaluated at 640 nm and the change of absorbance was evaluated between the time 0 and 20 min. The animals were treated with cyclophosphamide (100 mg/kg i.p.) from the third to the fifth day of treatment and with the compounds under test for 10 consecutive days; the day after the last treatment the test was carried out.

| SMILES | Variation versus the cyclophosphamide treated group % |
| --- | --- |
| CCNC(=O)C1CSCN1C(=O)[C@@H]1CCC(=O)N1 (stereo partly drawn) [Ic, N-(3-pyroglutamyl-thiazolidine-4-carbonyl)-ethylamine] ([pGlu]-[ξThz]-NHEt) | +15.94% |
| O=C1CC[C@@H](C(=O)N2CSCC2C(=O)O)N1 (stereo partly drawn) [PGT, 3-pyroglutamyl-thiazolidine-4-carboxylic acid, reference compound] ([pGlu]-[ξThz]-OH) | +14.06% |
| O=C1CC[C@@H](C(=O)N2CSCC2C(=O)N2CCOCC2)N1 (stereo partly drawn) [Ib, N-(3-Pyroglutamyl-thiazolidine-4-carbonyl)morpholine] ([pGlu]-[ξThz]-Morpholide) | +19.37% |
| NC(=O)C1CSCN1C(=O)[C@@H]1CCC(=O)N1 (stereo partly drawn) [Ia, 3-Pyroglutamyl-thiazolidine-4-carboxamide] ([pGlu]-[ξThz]-NH2) | +15.62% |

Same assay, conditions: 100 mg/kg/die i.p.; means ± SE of 10 mice; absorbance at 640 nm

| SMILES | Absorbance Δ (0'-20') |
| --- | --- |
| CCNC(=O)C1CSCN1C(=O)[C@@H]1CCC(=O)N1 (stereo partly drawn) [Ic, N-(3-pyroglutamyl-thiazolidine-4-carbonyl)-ethylamine] ([pGlu]-[ξThz]-NHEt) | 0.371 ± 0.016 |
| O=C1CC[C@@H](C(=O)N2CSCC2C(=O)O)N1 (stereo partly drawn) [PGT, 3-pyroglutamyl-thiazolidine-4-carboxylic acid, reference compound] ([pGlu]-[ξThz]-OH) | 0.365 ± 0.018 |
| O=C1CC[C@@H](C(=O)N2CSCC2C(=O)N2CCOCC2)N1 (stereo partly drawn) [Ib, N-(3-Pyroglutamyl-thiazolidine-4-carbonyl)morpholine] ([pGlu]-[ξThz]-Morpholide) | 0.382 ± 0.021 |
| NC(=O)C1CSCN1C(=O)[C@@H]1CCC(=O)N1 (stereo partly drawn) [Ia, 3-Pyroglutamyl-thiazolidine-4-carboxamide] ([pGlu]-[ξThz]-NH2) | 0.370 ± 0.013 |

System: E. coli
Assay: Endoperitoneal E. coli infection in mice
Format: in vivo
Conditions: 200 mg/kg/die os
Experimental: The compounds were tested in endoperitoneal infection in mice. Male COBS CD-1 mice weighing 22-25 g were inoculated i.p. with 0.5 ml/mouse of a pathogenic E.coli suspension (in saline solution+0.5% porcine gastric mucine), having a transmittance of about 50%. The mice were treated orally with the compounds twice a day from two days before until the day of the infection, 7 hours before the inoculation.
The death-rate was recorded for about 7-8 days after the infection.

| SMILES | Protection (%) |
| --- | --- |
| CCNC(=O)C1CSCN1C(=O)[C@@H]1CCC(=O)N1 (stereo partly drawn) [Ic, N-(3-pyroglutamyl-thiazolidine-4-carbonyl)-ethylamine] ([pGlu]-[ξThz]-NHEt) | 40 |
| O=C1CC[C@@H](C(=O)N2CSCC2C(=O)O)N1 (stereo partly drawn) [PGT, 3-pyroglutamyl-thiazolidine-4-carboxylic acid, reference compound] ([pGlu]-[ξThz]-OH) | 20 |
| O=C1CC[C@@H](C(=O)N2CSCC2C(=O)N2CCOCC2)N1 (stereo partly drawn) [Ib, N-(3-Pyroglutamyl-thiazolidine-4-carbonyl)morpholine] ([pGlu]-[ξThz]-Morpholide) | 40 |
| NC(=O)C1CSCN1C(=O)[C@@H]1CCC(=O)N1 (stereo partly drawn) [Ia, 3-Pyroglutamyl-thiazolidine-4-carboxamide] ([pGlu]-[ξThz]-NH2) | 40 |

Same assay, conditions: 200 mg/kg/die os; death-rate recorded 7-8 days after infection

| SMILES | N° dead mice/N° treated mice |
| --- | --- |
| CCNC(=O)C1CSCN1C(=O)[C@@H]1CCC(=O)N1 (stereo partly drawn) [Ic, N-(3-pyroglutamyl-thiazolidine-4-carbonyl)-ethylamine] ([pGlu]-[ξThz]-NHEt) | 6/10 |
| O=C1CC[C@@H](C(=O)N2CSCC2C(=O)O)N1 (stereo partly drawn) [PGT, 3-pyroglutamyl-thiazolidine-4-carboxylic acid, reference compound] ([pGlu]-[ξThz]-OH) | 8/10 |
| O=C1CC[C@@H](C(=O)N2CSCC2C(=O)N2CCOCC2)N1 (stereo partly drawn) [Ib, N-(3-Pyroglutamyl-thiazolidine-4-carbonyl)morpholine] ([pGlu]-[ξThz]-Morpholide) | 6/10 |
| NC(=O)C1CSCN1C(=O)[C@@H]1CCC(=O)N1 (stereo partly drawn) [Ia, 3-Pyroglutamyl-thiazolidine-4-carboxamide] ([pGlu]-[ξThz]-NH2) | 6/10 |
